The text below walks through data of patent publication US20210395226A1, “SUBSTITUTED ARYL COMPOUND AND PREPARATION METHOD THEREFOR AND USE THEREOF” (SICHUAN KELUN-BIOTECH BIOPHARMACEUTICAL CO., LTD., priority 2018, published 2021).

pKi: −log10 of the molar value. Where two headings read alike, the source gives them in different places.

Assay [1] addresses T1, Adenosine A2a receptor (human) membrane (Homo sapiens, UniProt P29274).
T1 construct: purchased PerkinElmer RBHA2AM400UA
Nature of the assay: Determination of competitive inhibition constant (Ki) for adenosine A2a receptor, [3H]-CGS-21680 radioligand. Type of assay: binding. The settings on record: for Ki(A1)/Ki(A2a): selectivity ratio A1 over A2a. The protocol: (§1) Test Example 1: Determination of Competitive Inhibition Constant (Ki) for Adenosine A1 and A2a Receptors
Adenosine A2a receptor (human) membrane (PerkinElmer, RBHA2AM400UA),
assay buffer for A2a (50 mM Tris-HCl, 10 mM MgCl2, 1 mM EDTA, pH7.4), used to dilute adenosine A2a receptor (human) membrane (human origin) and [^3H]-CGS-21680; and
wash buffer for A2a (50 mM Tris-HCl, 154 mM NaCl, pH7.4).
(§2) Adenosine A1 receptor membrane was diluted to 0.025 μg/μl with assay buffer for A1, and Adenosine A2a receptor membrane was diluted to 0.05 μg/μl with assay buffer for A2a, so as to obtain Adenosine A1 receptor membrane dilution and Adenosine A2a receptor membrane dilution.
(§3) The compound to be tested and CGS-15943 were diluted with DMSO, and 1 W of the compound to be tested, high value control (0.5% DMSO), low value control (1000 nM CGS-15943) were added to a 96-well plate, and 100 W of Adenosine A1 receptor membrane dilution (containing 2.5 μg of membrane) was added to each well of the 96-well plate to obtain A1 detection plate; following the same steps, 100 W of Adenosine A2a receptor membrane dilution (containing 5.0 μg membrane) was added to each well of the 96-well plate to obtain A2a detection plate.
(§4) To the A1 detection plate, 100 μl of radioisotope-labeled ligand [^3H]-DPCPX (diluted with assay buffer for A1, working concentration of which was 1.0 nM) was added; and to the A2a detection plate, 100 μl of radioisotope-labeled ligand [^3H]-CGS-21680 (diluted with assay buffer for A2a, working concentration of which was 6.0 nM) was added. The A1 and A2a detection plates were sealed with tape, and incubated at room temperature for 1 h and 2 h, respectively.
(§5) Unifilter-96 GF/C filter plates were prepared, 50 μl of 0.3% PEI was added to each well of the Unifilter-96 GF/C filter plates, and the resulting filter plates were incubated at room temperature for not less than 0.5 h.
(§6) After the incubation was completed, the reaction solution was transferred from the A1 detection plate and the A2a detection plate to two Unifilter-96 GF/C filter plates, and washed with pre-cooled wash buffer for A1 and wash buffer for A2a, and then the filter plates were dried, sealed at bottom, then 50 W of Microscint 20 fluid scintillation cocktail was added, and then the filter plates were sealed at top, and counted by MicroBeta2 Reader.
(§7) Inhibition rate %=100−(signal value of test well−signal average value of low value control)/(signal average value of high value control−signal average value of low value control)*100.
(§8) EXCEL XLfit was used to fit IC50.
(§9) The calculation formula for competitive inhibition constant (Ki) was: Ki=IC50/(1+concentration of isotope-labeled ligand/Kd), wherein Kd was the dissociation constant of the isotope-labeled ligand.

Assay [2] has as its target T2, Adenosine A1 receptor (human) membrane (Homo sapiens, UniProt P30542).
T2 construct: purchased PerkinElmer ES-010-M400UA
T2 sequence (P30542 1-326): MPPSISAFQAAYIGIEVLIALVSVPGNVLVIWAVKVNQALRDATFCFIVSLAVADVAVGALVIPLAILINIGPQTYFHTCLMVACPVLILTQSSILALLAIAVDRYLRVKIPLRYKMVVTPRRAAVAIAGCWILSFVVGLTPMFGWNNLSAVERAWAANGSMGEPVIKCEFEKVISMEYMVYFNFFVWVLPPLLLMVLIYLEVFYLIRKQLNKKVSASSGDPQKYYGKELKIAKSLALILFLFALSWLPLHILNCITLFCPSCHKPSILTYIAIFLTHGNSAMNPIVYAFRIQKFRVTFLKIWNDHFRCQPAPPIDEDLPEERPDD
The assay is described as follows: Determination of competitive inhibition constant (Ki) for adenosine A1 receptor, [3H]-DPCPX radioligand. Type of assay: binding. The settings on record: 1.0 nM [3H]-DPCPX. The protocol: as §1
[^3H]-DPCPX (PerkinElmer, NET974250UC),
Adenosine A1 receptor (human) membrane (PerkinElmer, ES-010-M400UA),
assay buffer for A1 (25 mM HEPES, 5 mM MgCl2, 1 mM CaCl2, 100 mM NaCl, pH7.4), used to dilute adenosine A1 receptor (human) membrane and [^3H]-DPCPX;
wash buffer for A1 (25 mM HEPES, 5 mM MgCl2, 1 mM CaCl2, 100 mM NaCl, pH7.4);
as §2, §3, §4, §5, §6, §7, §8, §9

Where [3] appears, read: human A2a receptor membrane, 6.0 nM [3H]-CGS-21680, read-out: Ki(A2a).

T1 sequence (P29274 whole entry): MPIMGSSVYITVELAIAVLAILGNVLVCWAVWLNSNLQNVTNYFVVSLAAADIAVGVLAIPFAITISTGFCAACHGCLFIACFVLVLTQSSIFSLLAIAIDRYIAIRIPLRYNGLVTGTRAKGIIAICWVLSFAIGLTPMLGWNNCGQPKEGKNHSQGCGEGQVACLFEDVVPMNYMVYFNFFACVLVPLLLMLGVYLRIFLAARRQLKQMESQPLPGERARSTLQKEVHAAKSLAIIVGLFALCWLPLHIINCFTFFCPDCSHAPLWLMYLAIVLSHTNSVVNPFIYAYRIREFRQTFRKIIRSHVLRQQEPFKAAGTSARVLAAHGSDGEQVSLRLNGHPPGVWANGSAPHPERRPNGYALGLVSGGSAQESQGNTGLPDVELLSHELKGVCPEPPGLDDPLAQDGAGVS

The pKi is the Ki on a negative log10 scale, so that one unit is a factor of ten. Turning to `Cc1ccc(-c2nc(NC(=O)N3CCC(N4CCCCC4)CC3)nnc2-c2ccc3ncnc(C)c3c2)o1` [Compound 27, N-(5-(5-methylfuran-2-yl)-6-(4-methylquinazolin-6-yl)-1,2,4-triazin-3-yl)-[1,4′-bipiperidine]-1′-carboxamide], the pKi was 8.40 in assay [1] (setting [3]) and 6.37 in assay [2]. Moreover, the “Ki(A1)/Ki(A2a)” value in assay [1] came out at 105.5.
On the same counts, the results for `Cc1cc(Cl)cc(-c2nnc(NC(=O)N3CCC(N4CCCCC4)CC3)nc2-c2ccc(C)o2)c1` [Compound 28, N-(6-(3-chloro-5-methylphenyl)-5-(5-methylfuran-2-yl)-1,2,4-triazin-3-yl)-[1,4′-bipiperidine]-1′-carboxamide] are 8.05, 5.75 and 197.5.
On to `Cc1ncnc2ccc(-c3ccc(NC(=O)N(C)Cc4ccccn4)nc3-c3ccc(F)cc3)cc12` [Compound 29, 3-(6-(4-fluorophenyl)-5-(4-methylquinazolin-6-yl)pyridin-2-yl)-1-methyl-1-(pyridine-2-methyl)urea], for which, in assay [1], the pKi was 7.93 and the “Ki(A1)/Ki(A2a)” value came out at 425.9. Also, in assay [2], the pKi is 5.30.
Regarding `Cc1ncnc2ccc(-c3cnc(NC(=O)N4CCN(C)CC4)nc3-c3ccc(F)cc3)cc12` [Compound 30, N-(4-(4-fluorophenyl)-5-(4-methylquinazolin-6-yl)pyrimidin-2-yl)-4-methylpiperazine-1-carboxamide], the pKi is 7.67 in assay [1] (setting [3]) and 5.80 in assay [2]. Further, in assay [1], the “Ki(A1)/Ki(A2a)” value is listed as 75.0.
Take `COCCN(C)C(=O)Nc1ncc(-c2ccc3ncnc(C)c3c2)c(-c2ccc(F)cc2)n1` [Compound 31, 3-(4-(4-fluorophenyl)-5-(4-methylquinazolin-6-yl)pyrimidin-2-yl)-1-(2-methoxyethyl)-1-methylurea]: the pKi in assay [1] (setting [3]) is 7.56; in assay [2] it was 5.48. For the same compound, the “Ki(A1)/Ki(A2a)” value in assay [1] is given as 120.1.
Regarding `Cc1ncnc2ccc(-c3cnc(NC(=O)N4CCO[C@@H](C)C4)nc3-c3ccc(F)cc3)cc12` [Compound 34, (S)-N-(4-(4-fluorophenyl)-5-(4-methylquinazolin-6-yl)pyrimidin-2-yl)-2-methylmorpholine-4-carboxamide], the pKi in assay [1] (setting [3]) is 7.90; in assay [2] it was 6.27. For the same compound, in assay [1], the “Ki(A1)/Ki(A2a)” value amounted to 42.7.
For the compound `Cc1cc(-c2cnc(NC(=O)N3CCCCC3)nc2-c2ccc(F)cc2)cc(Cl)n1` [Compound 35, N-(5-(2-chloro-6-methylpyridin-4-yl)-4-(4-fluorophenyl)pyrimidin-2-yl) piperidine-1-carboxamide], the pKi in assay [1] (setting [3]) was 7.83; in assay [2], 5.73. Besides, the “Ki(A1)/Ki(A2a)” value in assay [1] came out at 126.9.
As for `Cc1cc(-c2cnc(NC(=O)N3CCO[C@@H](C)C3)nc2-c2ccc(F)cc2)cc(Cl)n1` [Compound 36, (S)-N-(5-(2-chloro-6-methylpyridin-4-yl)-4-(4-fluorophenyl)pyrimidin-2-yl)-2-methylmorpholine-4-carboxamide], the negative logarithm of the Ki (pKi) in assay [1] (setting [3]) is 7.97; in assay [2], 6.23. The “Ki(A1)/Ki(A2a)” value in assay [1] was 55.0.
The matching figures for `Cc1cc(-c2cnc(NC(=O)N3C[C@@H](C)O[C@@H](C)C3)nc2-c2ccc(F)cc2)cc(Cl)n1` [Compound 37, (2R,6S)-N-(5-(2-chloro-6-methylpyridin-4-yl)-4-(4-fluorophenyl)pyrimidin-2-yl)-2,6-dimethylmorpholine-4-carboxamide]: 7.63, 5.39 and 173.7.
Consider `Cc1cc(-c2cnc(NC(=O)N3CCO[C@H](C)C3)nc2-c2ccc(F)cc2)cc(Cl)n1` [Compound 38, (R)-N-(5-(2-chloro-6-methylpyridin-4-yl)-4-(4-fluorophenyl)pyrimidin-2-yl)-2-methylmorpholine-4-carboxamide], for which the figures for the pKi in assay [1] (setting [3]) and in assay [2] were 7.88 and 5.85, respectively. Besides, in assay [1], the “Ki(A1)/Ki(A2a)” value stood at 107.4.
The matching figures for `Cc1ncnc2ccc(-c3cnc(NC(=O)N4C[C@@H](C)O[C@@H](C)C4)nc3-c3ccc(F)cc3)cc12` [Compound 39, (2R,6S)-N-(4-(4-fluorophenyl)-5-(4-methylquinazolin-6-yl)pyrimidin-2-yl)-2,6-dimethylmorpholine-4-carboxamide]: 7.96, 6.09 and 74.0.
On the same counts, the results for `Cc1ncnc2ccc(-c3cnc(NC(=O)N4CCO[C@H](C)C4)nc3-c3ccc(F)cc3)cc12` [Compound 40, (R)-N-(4-(4-fluorophenyl)-5-(4-methylquinazolin-6-yl)pyrimidin-2-yl)-2-methylmorpholine-4-carboxamide] are 8.27, 6.39 and 76.2.
Regarding `Cc1ncnc2ccc(-c3ccc(NC(=O)N4CCOCC4)nc3-c3ccc(F)cc3)cc12` [Compound 41, N-(6-(4-fluorophenyl)-5-(4-methylquinazolin-6-yl)pyridin-2-yl)morpholine-4-carboxamide], the figures for the pKi in assay [1] (setting [3]) and in assay [2] were 8.72 and 5.60, respectively. The “Ki(A1)/Ki(A2a)” value in assay [1] is recorded as 1319.0.
The matching figures for `Cc1ncnc2ccc(-c3c(Cl)cc(NC(=O)N4CCOCC4)nc3-c3ccc(F)cc3)cc12` [Compound 42, N-(4-chloro-6-(4-fluorophenyl)-5-(4-methylquinazolin-6-yl)pyridin-2-yl) morpholine-4-carboxamide]: 8.64, 6.48 and 144.6.
On the same counts, the results for `Cc1cc(-c2c(C#N)cc(NC(=O)N3CCOCC3)nc2-c2ccc(F)cc2)cc(Cl)n1` [Compound 45, N-(2′-chloro-4-cyano-2-(4-fluorophenyl)-6′-methyl-[3,4′-bipyridyl]-6-yl) morpholine-4-carboxamide] are 7.93, 5.86 and 115.3.
As for `Cc1ccnc2ccc(-c3c(-c4ccc(F)cc4)nc(NC(=O)N4CCOCC4)nc3C3CC3)cc12` [Compound 47, N-(4-cyclopropyl-6-(4-fluorophenyl)-5-(4-methylquinolin-6-yl)pyrimidin-2-yl)morpholine-4-carboxamide], the values for the pKi in assay [1] (setting [3]) and in assay [2] were 8.29 and 6.66, respectively. In addition, the “Ki(A1)/Ki(A2a)” value in assay [1] was determined as 42.4.
